Measured values published in article PMC11249646, “Small-Molecule Disruptors of the Interaction between Calcium- and Integrin-Binding Protein 1 and Integrin αIIbβ3 as Novel Antiplatelet Agents” (ACS Pharmacology & Translational Science, 2024).
Read-outs that look alike come from different tables or passages of the source.

Assays:
Format in all cases: binding
[1] = biological target: T1, CIB1 and αIIb interaction (GST-CIB1 : F-αIIb peptide) (Homo sapiens, UniProt Q99828); test: FP assay, 384-well format (screen); design: 384-well SCREEN Efficacy (%): concentration or dose not given beside the values; details: for IC50: read-out: 384-well SCREEN IC50
T1 construct: made in house; host or cells: BL-21 plus RIL cells (E. coli)
T1 sequence (Q99828 1-191): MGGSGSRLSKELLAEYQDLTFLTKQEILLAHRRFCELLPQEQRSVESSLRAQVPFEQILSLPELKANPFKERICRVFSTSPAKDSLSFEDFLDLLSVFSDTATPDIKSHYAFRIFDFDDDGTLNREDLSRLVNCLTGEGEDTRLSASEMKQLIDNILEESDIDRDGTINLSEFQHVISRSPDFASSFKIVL

[2] = biological target: T2, GST-CIB1 : F-scrambled peptide (Homo sapiens, UniProt Q99828); test: FP scrambled-peptide counter screen, 384-well format; details: for 384-well COUNTERSCREEN Confirm?: *: Curve in opposite direction; for IC50: read-out: 384-well COUNTERSCREEN IC50
T2 construct: made in house; host or cells: BL-21 plus RIL cells (E. coli)
T2 sequence (Q99828 1-191): T1 sequence (Q99828 1-191)

[3] = biological target: T3, CIB1 and αIIb interaction (CIB1-GST : F-αIIb peptide) (Homo sapiens, UniProt Q99828); test: FP assay, 1536-well qHTS format (primary and confirmatory screen)
T3 construct: made in house; host or cells: BL-21 plus RIL cells (E. coli)
T3 sequence (Q99828 1-191): T1 sequence (Q99828 1-191)

[4] = biological target: T2, GST-CIB1 : F-scrambled peptide; test: FP scrambled-peptide counter screen, 1536-well format; details: for IC50: read-out: COUNTERSCREEN IC50
[5] = confirmatory screen, YES/NO call
[6] = confirmatory screen, qHTS curve class, negative sign = inhibitory curve
[7] = confirmatory screen, negative = inhibition
[8] = confirmatory screen, read-out: CONFIRMATORY SCREEN IC50
[9] = qHTS FP screen hits, Table S2, negative = inhibition
[10] = qHTS FP screen hits, Table S2, read-out: IC50
[11] = scrambled-peptide counterscreen
[12] = scrambled-peptide counterscreen, YES/NO call
[13] = scrambled-peptide counterscreen, qHTS curve class
[14] = qHTS primary screen hits, Table S2, negative = inhibition
[15] = qHTS primary screen hits, Table S2, read-out: IC50
[16] = qHTS FP screen hits, Table S2, one class per curve where COUNT > 1, negative sign = inhibitory curve
[17] = qHTS primary screen hits, Table S2, negative sign = inhibitory curve, several classes where COUNT > 1

Row | Compound | 384-well SCREEN Efficacy (%) ([1]; F-αIIb peptide) | 384-well SCREEN Confirm? ([1]; F-αIIb peptide, YES/NO) | IC50 ([1]; F-αIIb peptide) | 384-well COUNTERSCREEN Efficacy (%) ([2]; F-scrambled peptide) | 384-well COUNTERSCREEN Confirm? ([2]; F-scrambled peptide) | IC50 ([2]; F-scrambled peptide) | CONFIRMATORY SCREEN Confirm? [3, 5] | CONFIRMATORY SCREEN Curve Class [3, 6] | CONFIRMATORY SCREEN Efficacy (%) [3, 7] | IC50 [3, 8] | Efficacy (%) [3, 9] | IC50 [3, 10] | COUNTERSCREEN Efficacy (%) [4, 11] | COUNTERSCREEN Confirm? [4, 12] | COUNTERSCREEN Curve Class [4, 13] | Efficacy (%) [3, 14] | IC50 [3, 15] | also measured
1 | CCc1ccc(/C=C2/SC(=S)NC2=O)cc1 [NCGC00185994-01] | 44% | YES | 17.8 µM | 68% | YES | > 120 µM | YES | -1.1 | -93% | 8.9 µM | -43% | 8.2 µM | 0% | YES | 4 | – | – | –
2 | CC[P](CC)(CC)=[Au][S][C@@H]1O[C@H](COC(C)=O)[C@@H](OC(C)=O)[C@H](OC(C)=O)[C@H]1OC(C)=O [NCGC00160391-02] | – | – | – | – | – | – | – | – | – | – | – | – | – | – | – | – | – | 384-well SCREEN Confirm? [1]: YES; 384-well SCREEN Efficacy (%) [1]: 69%; IC50 [1]: 6.3 µM; 384-well COUNTERSCREEN Efficacy (%) [2]: 52%; IC50 [2]: 8.9 µM; CONFIRMATORY SCREEN Confirm? [3]: YES; CONFIRMATORY SCREEN Curve Class [3]: -1.2; CONFIRMATORY SCREEN Efficacy (%) [3]: -36%; IC50 ([3]; read-out: CONFIRMATORY SCREEN IC50): 31.6 µM; COUNTERSCREEN Confirm? [4]: YES; COUNTERSCREEN Curve Class [4]: 4; COUNTERSCREEN Efficacy (%) [4]: -14%
3 | Cc1ccc(S(=O)(=O)Nc2cnccc2C(=O)Nc2nc(-c3ccccc3)cs2)cc1.O=C(O)C(F)(F)F [NCGC00262386-01] | 29% | YES | 16.1 µM | 42% | YES | > 120 µM | YES | -1.2 | -53% | 14.1 µM | – | – | -51% | YES | -3 | -42% | 27.4 µM | IC50 [4, 11]: 89.1 µM
4 | Br.CCCCCCCCCCCCCCCC[N+](C)(C)C.[Br-] [NCGC00164283-07] | 57% | YES | 15.8 µM | 44% | YES | 2.5 µM | YES | -2.1 | -114% | 70.8 µM | -75% | 79.4 µM | 0% | YES | 4 | – | – | Curve Class [3, 16]: -2.2
5 | O=C(O)C(F)(F)F.O=c1c2ccccc2nc2sc(NS(=O)(=O)c3ccc4c(c3)CCC4)nn12 [NCGC00187579-01] | 43% | YES | 44.7 µM | 28% | YES | > 120 µM | YES | -1.2 | -35% | 6.3 µM | – | – | 62% | YES | – | -32% | 2.8 µM | Curve Class ([3]; qHTS primary screen hits, Table S2, negative sign = inhibitory curve): -1.4; IC50 [4, 11]: 35.5 µM
6 | O=C(Nc1nc(-c2ccccc2)cs1)c1ccncc1NS(=O)(=O)c1ccc(Cl)cc1.O=C(O)C(F)(F)F [NCGC00344892-02] | 31% | YES | 35.5 µM | 55% | YES | > 120 µM | YES | -1.2 | -69% | 25.1 µM | – | – | 13% | YES | 4 | – | – | –
7 | COc1cc(/C=C2/N=C(c3ccccc3)OC2=O)c(F)cc1OCc1ccccc1 [NCGC00168015-01] | 22% | – | > 120 µM | 32% | – | > 120 µM | YES | -2.2 | -79% | 44.7 µM | – | – | -24% | YES | 4 | -91% | 50.1 µM | Curve Class [3, 17]: -2.1
8 | Cc1c(C)n(Cc2ccc(-c3ccccc3C(=O)O)cc2)c2ccc(C(=O)N[C@@H](C)c3ccc([N+](=O)[O-])cc3)cc12 [NCGC00347955-04] | 56% | YES | 12.6 µM | 32% | YES | > 120 µM | YES | -1.2 | -52% | 22.4 µM | – | – | 95% | YES | 3 | – | – | IC50 [4, 11]: 89.1 µM
9 | O=C(O)c1cccc(CN2C(=O)/C(=C(\c3ccccc3)c3ccc(Cl)cc3)c3ccccc32)c1 [NCGC00378823-01] | 70% | YES | 63.4 µM | 0% | YES | > 120 µM | YES | -2.2 | -63% | 44.7 µM | -34% | 39.8 µM | -27% | YES | 4 | – | – | Curve Class [3, 16]: -1.2
10 | COc1ccccc1S(=O)(=O)Nc1cnccc1C(=O)Nc1nc(-c2ccccc2)cs1.O=C(O)C(F)(F)F [NCGC00344905-01] | 37% | YES | 7.1 µM | 44% | – | 10 µM | YES | -2.2 | -79% | – | -43% | – | -15% | YES | 4 | – | – | Curve Class [3, 16]: -2.2
11 | CCC(=O)NC(c1cccs1)c1cc([N+](=O)[O-])c2cccnc2c1O (stereo not shown) [NCGC00182956-10] | 23% | – | > 120 µM | 47% | – | 17.7 µM | YES | -3 | -53% | 50.1 µM | -51% | 46.6 µM | -17% | YES | 4 | – | – | –
12 | O=C(Nc1nc(-c2ccccc2)cs1)c1ccncc1NS(=O)(=O)c1cccc2cccnc12.O=C(O)C(F)(F)F [NCGC00344938-01] | 16% | YES | 6.3 µM | 18% | YES | > 120 µM | YES | -2.2 | -93% | 35.5 µM | – | – | -33% | YES | -2.4 | -56% | 39.8 µM | Curve Class [3, 17]: -2.2; IC50 [4, 11]: 70.8 µM
13 | Cc1ccc(-c2cc(-c3nn(-c4nc(C(=O)O)cs4)c(CC4CC4)c3Cc3ccc(S(N)(=O)=O)c(F)c3)ccc2F)s1.Cl [NCGC00388587-02] | 84% | – | > 120 µM | 242% | – | 50.1 µM | YES | -2.4 | -66% | 20 µM | – | – | 32% | YES | 4 | -23% | 28.2 µM | Curve Class [3, 17]: -1.4
14 | Cc1cc(F)ccc1S(=O)(=O)Nc1cnccc1C(=O)Nc1nc(-c2ccccc2)cs1 [NCGC00345106-03] | 46% | YES | 28.2 µM | 38% | YES | > 120 µM | YES | -2.1 | -123% | 28.2 µM | -51% | 50.1 µM | 28% | YES | 4 | – | – | Curve Class [3, 16]: -2.2
